Measured values: patent US20070027150A1 (priority 2005, published 2007)

Molecular target: His-tagged N-terminal ATP binding domain (amino acid residues 9-236) of HSP90α (Homo sapiens, UniProt P07900)
Assay: HSP90 inhibitor binding potency: TRF competition binding assay
Settings: Table I; read-out: Hsp90 IC50 Range
In short: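 His-tagged HSP90α N-domain (residues 9-236) incubated 2 h at room temperature with biotinylated radicicol and increasing compound in 50 mM HEPES, 6 mM MgCl2, 20 mM KCl, 0.1% BSA. Bound tracer captured on streptavidin plates, detected with europium anti-His antibody by time-resolved fluorescence; IC50 derived.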

SMILES | IC50
COc1cccc(Oc2ccccc2C2CC(=O)c3c(C)nc(N)nc3C2)n1 (stereo not shown) [Compound 146, 2-amino-7-{2-[(6-methoxypyridin-2-yl)oxy]phenyl}-4-methyl-7,8-dihydroquinazolin-5(6H)-one] | < 1000 nM
COc1ccc(-c2cccnc2Cl)c(C2CC(=O)c3c(C)nc(N)nc3C2)c1 (stereo not shown) [Compound 108, 2-amino-7-[2-(2-chloropyridin-3-yl)-5-methoxyphenyl]-4-methyl-7,8-dihydroquinazolin-5(6H)-one] | < 1000 nM
Cc1nc(N)nc2c1C(=O)CC(c1cccc(-c3ccccn3)c1)C2 (stereo not shown) [Compound 28, 2-amino-4-methyl-7-(3-pyridin-2-ylphenyl)-7,8-dihydroquinazolin-5(6H)-one] | > 10000 nM
Cc1cccc(-c2ccccc2C2CC(=O)c3c(C)nc(N)nc3C2)n1 (stereo not shown) [Compound 119, 2-amino-4-methyl-7-[2-(6-methylpyridin-2-yl)phenyl]-7,8-dihydroquinazolin-5(6H)-one] | > 10000 nM
Cc1nc(N)nc2c1C(=O)CC(c1ccccc1N1CCCC1=O)C2 (stereo not shown) [Compound 163, 2-amino-4-methyl-7-[2-(2-oxo-pyrrolidin-1-yl)-phenyl]-7,8-dihydro-6H-quinazolin-5-one] | 1000 to 10000 nM
Cc1nc(N)nc2c1C(=O)CC(c1ccccc1-c1ccc[nH]c1=O)C2 (stereo not shown) [Compound 169, 2-amino-4-methyl-7-[2-(2-oxo-1,2-dihydropyridin-3-yl)phenyl]-7,8-dihydroquinazolin-5(6H)-one] | < 1000 nM
Cc1cccc(-c2ccccc2C2CC(=O)c3c(C)nc(N)nc3C2)c1 (stereo not shown) [Compound 50, 2-amino-4-methyl-7-(3′-methyl-1,1′-biphenyl-2-yl)-7,8-dihydroquinazolin-5(6H)-one] | 1000 to 10000 nM
Cc1nc(N)nc2c1C(=O)CC(c1ccccc1-c1ncccn1)C2 (stereo not shown) [Compound 32, 2-amino-4-methyl-7-(2-pyrimidin-2-ylphenyl)-7,8-dihydroquinazolin-5(6H)-one] | < 1000 nM
Cc1nc(N)nc2c1C(=O)CC(c1ccccc1-c1cccnn1)C2 (stereo not shown) [Compound 115, 2-amino-4-methyl-7-(2-pyridazin-3-ylphenyl)-7,8-dihydroquinazolin-5(6H)-one] | 1000 to 10000 nM
COc1ccnc(-c2ccccc2C2CC(=O)c3c(C)nc(N)nc3C2)c1 (stereo not shown) [Compound 125, 2-amino-7-[2-(4-methoxy-pyridin-2-yl)-phenyl]-4-methyl-7,8-dihydro-6H-quinazolin-5-one] | < 1000 nM
Cc1nc(N)nc2c1C(=O)CC(c1ccccc1C1CCCCC1)C2 (stereo not shown) [Compound 171, 2-amino-7-(2-cyclohexylphenyl)-4-methyl-7,8-dihydroquinazolin-5(6H)-one] | < 1000 nM
Cc1nc(N)nc2c1C(=O)CC(c1ccccc1-c1c(C)noc1C)C2 (stereo not shown) [Compound 59, 2-amino-7-[2-(3,5-dimethylisoxazol-4-yl)phenyl]-4-methyl-7,8-dihydroquinazolin-5(6H)-one] | 1000 to 10000 nM
COc1cccc(-c2ccccc2CO)c1C1CC(=O)c2c(C)nc(N)nc2C1 (stereo not shown) [Compound 105, 2-amino-7-[2′-(hydroxymethyl)-3-methoxy-1,1′-biphenyl-2-yl]-4-methyl-7,8-dihydroquinazolin-5(6H)-one] | < 1000 nM
Cc1nc(N)nc2c1C(=O)CC(c1cccnc1Cl)C2 (stereo not shown) [Compound 4, 2-amino-7-(2-chloropyridin-3-yl)-4-methyl-7,8-dihydroquinazolin-5(6H)-one] | > 10000 nM
COc1cccc(C2CCCCC2)c1C1CC(=O)c2c(C)nc(N)nc2C1 (stereo not shown) [Compound 173, 2-amino-7-(2-cyclohexyl-6-methoxyphenyl)-4-methyl-7,8-dihydroquinazolin-5(6H)-one] | > 10000 nM
CC(=O)c1cccc(-c2ccccc2C2CC(=O)c3c(C)nc(N)nc3C2)n1 (stereo not shown) [Compound 92, 7-[2-(6-acetylpyridin-2-yl)phenyl]-2-amino-4-methyl-7,8-dihydroquinazolin-5(6H)-one] | 1000 to 10000 nM
Cc1nc(N)nc2c1C(=O)CC(c1ccccc1C#Cc1ccccc1)C2 (stereo not shown) [Compound 37, 2-amino-4-methyl-7-[2-(phenylethynyl)phenyl]-7,8-dihydroquinazolin-5(6H)-one] | > 10000 nM
Cc1cccc(Oc2ccccc2C2CC(=O)c3c(C)nc(N)nc3C2)c1 (stereo not shown) [Compound 135, 2-amino-4-methyl-7-[2-(3-methylphenoxy)phenyl]-7,8-dihydroquinazolin-5(6H)-one] | < 1000 nM
Cc1nc(N)nc2c1C(=O)CC(c1ccccc1Oc1ccnc(Cl)c1)C2 (stereo not shown) [Compound 147, 2-amino-7-{2-[(2-chloropyridin-4-yl)oxy]phenyl}-4-methyl-7,8-dihydroquinazolin-5(6H)-one] | 1000 to 10000 nM
Cc1nc(N)nc2c1C(=O)CC(c1ccccc1-c1cccc(F)c1)C2 (stereo not shown) [Compound 52, 2-amino-7-(3′-fluoro-1,1′-biphenyl-2-yl)-4-methyl-7,8-dihydroquinazolin-5(6H)-one] | < 1000 nM

Same assay, conditions: Table II; read-out: Hsp90 IC50 Range

SMILES | IC50
Cc1nc(N)nc2c1C(=O)CC(c1c(F)cccc1-c1cccnc1F)C2 (stereo not shown) [Compound 217, 2-amino-7-[2-fluoro-6-(2-fluoro-pyridin-3-yl)-phenyl]-4-methyl-7,8-dihydro-6H-quinazolin-5-one] | < 1000 nM
Cc1nc(N)nc2c1C(=O)CC(c1ccc(F)cc1-c1cccc3ccccc13)C2 (stereo not shown) [Compound 212, 2-amino-7-(4-fluoro-2-naphthalen-1-yl-phenyl)-4-methyl-7,8-dihydro-6H-quinazolin-5-one] | < 1000 nM
Cc1nc(N)nc2c1C(=O)CC(c1ccc(F)cc1-c1nccnc1F)C2 (stereo not shown) [Compound 231, 2-amino-7-[4-fluoro-2-(3-fluoro-pyrazin-2-yl)-phenyl]-4-methyl-7,8-dihydro-6H-quinazolin-5-one] | < 1000 nM
Cc1nc(N)nc2c1C(=O)CC(c1ccccc1)C2NC(=O)c1ccccc1 (stereo not shown) [Compound 242, N-(2-amino-4-methyl-5-oxo-7-phenyl-5,6,7,8-tetrahydro-quinazolin-8-yl)-benzamide] | > 10000 nM
CNc1cncc(-c2cc(F)ccc2C2CC(=O)c3c(C)nc(N)nc3C2)n1 (stereo not shown) [Compound 296, 2-amino-7-[4-fluoro-2-(6-methylamino-pyrazin-2-yl)-phenyl]-4-methyl-7,8-dihydro-6H-quinazolin-5-one] | < 1000 nM
CCc1nc(N)nc2c1C(=O)CC(c1ccc(F)cc1-c1cccnc1F)C2 (stereo not shown) [Compound 319, 2-amino-4-ethyl-7-[4-fluoro-2-(2-fluoro-pyridin-3-yl)-phenyl]-7,8-dihydro-6H-quinazolin-5-one] | 1000 to 10000 nM
Cc1nc(N)nc2c1C(=O)CC(c1nccn1-c1cccc(OC(F)(F)F)c1)C2 (stereo not shown) [Compound 198, 2-amino-4-methyl-7-[1-(3-trifluoromethoxy-phenyl)-1H-imidazol-2-yl]-7,8-dihydro-6H-quinazolin-5-one] | > 10000 nM
Cc1nc(N)nc2c1C(=O)CC(c1c(-c3cccnc3F)cnn1Cc1ccccc1)C2 (stereo not shown) [Compound 215, 2-amino-7-[2-benzyl-4-(2-fluoro-pyridin-3-yl)-2H-pyrazol-3-yl]-4-methyl-7,8-dihydro-6H-quinazolin-5-one] | 1000 to 10000 nM
Cc1nc(N)nc2c1C(=O)CC(c1ncccc1OC1CCCC1)C2 (stereo not shown) [Compound 178, 2-amino-7-(3-cyclopentyloxy-pyridin-2-yl)-4-methyl-7,8-dihydro-6H-quinazolin-5-one] | < 1000 nM
CCc1nc(N)nc2c1C(=O)CC(c1ccc(F)cc1Br)C2 (stereo not shown) [Compound 315, 2-amino-7-(2-bromo-4-fluoro-phenyl)-4-ethyl-7,8-dihydro-6H-quinazolin-5-one] | > 10000 nM
Cc1nc(N)nc2c1C(=O)CC(c1ccc(Cl)cc1-c1cccnc1F)C2 (stereo not shown) [Compound 249, 2-amino-7-[4-chloro-2-(2-fluoro-pyridin-3-yl)-phenyl]-4-methyl-7,8-dihydro-6H-quinazolin-5-one] | < 1000 nM
Cc1nc(N)nc2c1C(=O)CC(c1ccccc1S(=O)(=O)N(C)C(C)C)C2 (stereo not shown) [Compound 185, 2-(2-amino-4-methyl-5-oxo-5,6,7,8-tetrahydro-quinazolin-7-yl)-N-isopropyl-N-methyl-benzenesulfonamide] | 1000 to 10000 nM
Cc1nc(N)nc2c1C(=O)CC(c1ccccc1S(=O)(=O)C(C)(C)C)C2 (stereo not shown) [Compound 182, 2-amino-4-methyl-7-[2-(2-methyl-propane-2-sulfonyl)-phenyl]-7,8-dihydro-6H-quinazolin-5-one] | < 1000 nM
COc1nc(-c2cc(F)ccc2C2CC(=O)c3c(C)nc(N)nc3C2)ncc1Cl (stereo not shown) [Compound 272, 2-amino-7-[2-(5-chloro-4-methoxy-pyrimidin-2-yl)-4-fluoro-phenyl]-4-methyl-7,8-dihydro-6H-quinazolin-5-one] | < 1000 nM
CC(=O)Nc1cccc(Cc2nc(N)nc3c2C(=O)CC(c2ccccc2)C3)c1 (stereo not shown) [Compound 310, N-[3-(2-amino-5-oxo-7-phenyl-5,6,7,8-tetrahydro-quinazolin-4-ylmethyl)-phenyl]-acetamide] | > 10000 nM
CC(=O)c1ccc(-c2cc(F)ccc2[C@@H]2CC(=O)c3c(C)nc(N)nc3C2)s1 [Compound 326, (S)-7-[2-(5-Acetyl-thiophen-2-yl)-4-fluoro-phenyl]-2-amino-4-methyl-7,8-dihydro-6H-quinazolin-5-one] | 1000 to 10000 nM
COc1nc(-n2ccnc2[C@H]2CC(=O)c3c(C)nc(N)nc3C2)ncc1C [Compound 207, (R)-2-amino-7-[1-(4-methoxy-5-methyl-pyrimidin-2-yl)-1H-imidazol-2-yl]-4-methyl-7,8-dihydro-6H-quinazolin-5-one] | > 10000 nM
Cc1ccc(F)c(-c2scnc2C2CC(=O)c3c(C)nc(N)nc3C2)c1 (stereo not shown) [Compound 293, 2-amino-7-[5-(2-fluoro-5-methyl-phenyl)-thiazol-4-yl]-4-methyl-7,8-dihydro-6H-quinazolin-5-one] | < 1000 nM
Nc1ncc2c(n1)CC(c1ccccc1-c1cccnc1F)CC2=O (stereo not shown) [Compound 243, 2-amino-7-[2-(2-fluoro-pyridin-3-yl)-phenyl]-7,8-dihydro-6H-quinazolin-5-one] | < 1000 nM
Nc1cccc(Cc2nc(N)nc3c2C(=O)CC(c2ccccc2)C3)c1 (stereo not shown) [Compound 309, 2-amino-4-(3-amino-benzyl)-7-phenyl-7,8-dihydro-6H-quinazolin-5-one] | > 10000 nM
